Data as given in patent publication US12304932B2, “PACAP stabilized peptide” (SENJU PHARMACEUTICAL CO., LTD., priority 2017, dated 2025).
Square brackets hold non-standard residues; d marks the D form. Peptide text beside a SMILES is read from it. * marks the point of attachment. Ala(1H-tetrazol-5-yl) = N[C@@H](Cc1nnn[nH]1)C(=O)O; Ms = CS(=O)(=O)*

Assay: Peptide stability tests 2 and 3: Tris buffer pH 7.0, stored at 60° C., HPLC conditions 2
Type: physicochemical
Settings: 100 μM peptide, Tris buffer pH 7.0, 60° C.; for survival rate after correction for water, 60° C., 2-week storage / survival rate after correction for water, 60° C., 2-week storage (Table 7-2): 2 weeks
Outline: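 Peptides at 100 μM in Tris buffer pH 7.0, held 1 or 2 weeks at 60° C. An unstored sample served as standard. Water-corrected survival rate by HPLC on C18 at 40° C., 0.1% formic acid water/acetonitrile gradient, 220 nm detection.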

## CC[C@H](C)[C@H](NC(=O)CNC(=O)[C@H](Cc1nnn[nH]1)NC(=O)[C@H](CO)NC(=O)[C@H](Cc1c[nH]cn1)NC(C)=O)C(=O)N[C@@H](Cc1ccccc1)C(=O)N[C@H](C(=O)N[C@@H](Cc1nnn[nH]1)C(=O)N[C@@H](C)C(=O)N[C@@H](Cc1ccc(O)cc1)C(=O)N[C@@H](CO)C(=O)N[C@@H](CCCNC(=N)N)C(=O)N[C@@H](Cc1ccc(O)cc1)C(=O)N[C@@H](CCCNC(=N)N)C(=O)N[C@@H](CCCCN)C(=O)N[C@@H](CCC(N)=O)C(=O)N[C@@H](C)C(=O)N[C@@H](C)C(=O)N[C@H](C(=O)N[C@@H](CCCCN)C(=O)N[C@@H](CCCCN)C(=O)N[C@@H](Cc1ccc(O)cc1)C(=O)N[C@@H](CC(C)C)C(=O)N[C@@H](C)C(=O)N[C@@H](C)C(=O)N[C@H](C(=O)N[C@@H](CC(C)C)C(N)=O)C(C)C)C(C)C)[C@@H](C)O [Peptide 27] (Ac-HS[Ala(1H-tetrazol-5-yl)]GIFT[Ala(1H-tetrazol-5-yl)]AYSRYRKQAAVKKYLAAVL-NH2)
  survival rate after correction for water, 60° C., 1-week storage: 96.4%
  survival rate after correction for water, 60° C., 2-week storage: 93.5%

## CC[C@H](C)[C@H](NC(=O)CNC(=O)[C@H](Cc1nnn[nH]1)NC(=O)[C@H](CO)NC(=O)[C@H](Cc1c[nH]cn1)NC(C)=O)C(=O)N[C@@H](Cc1ccccc1)C(=O)N[C@H](C(=O)N[C@@H](Cc1nnn[nH]1)C(=O)N[C@@H](CO)C(=O)N[C@@H](Cc1ccc(O)cc1)C(=O)N[C@@H](CO)C(=O)N[C@@H](CCCNC(=N)N)C(=O)N[C@@H](Cc1ccc(O)cc1)C(=O)N[C@@H](CCCNC(=N)N)C(=O)N[C@@H](CCCCN)C(=O)N[C@@H](C)C(=O)N[C@@H](C)C(=O)N[C@@H](C)C(=O)N[C@H](C(=O)N[C@@H](CCCCN)C(=O)N[C@@H](CCCCN)C(=O)N[C@@H](Cc1ccc(O)cc1)C(=O)N[C@@H](CC(C)C)C(=O)N[C@@H](C)C(=O)N[C@@H](C)C(=O)N[C@H](C(=O)N[C@@H](CC(C)C)C(N)=O)C(C)C)C(C)C)[C@@H](C)O [Peptide 28] (Ac-HS[Ala(1H-tetrazol-5-yl)]GIFT[Ala(1H-tetrazol-5-yl)]SYSRYRKAAAVKKYLAAVL-NH2)
  survival rate after correction for water, 60° C., 1-week storage: 94.6%
  survival rate after correction for water, 60° C., 2-week storage: 90.5%

## CC[C@H](C)[C@H](NC(=O)CNC(=O)[C@H](Cc1nnn[nH]1)NC(=O)[C@H](CO)NC(=O)[C@H](Cc1c[nH]cn1)NS(C)(=O)=O)C(=O)N[C@@H](Cc1ccccc1)C(=O)N[C@H](C(=O)N[C@@H](Cc1nnn[nH]1)C(=O)N[C@@H](C)C(=O)N[C@@H](Cc1ccc(O)cc1)C(=O)N[C@@H](CO)C(=O)N[C@@H](CCCNC(=N)N)C(=O)N[C@@H](Cc1ccc(O)cc1)C(=O)N[C@@H](CCCNC(=N)N)C(=O)N[C@@H](CCCCN)C(=O)N[C@@H](CCC(N)=O)C(=O)N[C@@H](CC(C)C)C(=O)N[C@@H](C)C(=O)N[C@H](C(=O)N[C@@H](CCCCN)C(=O)N[C@@H](CCCCN)C(=O)N[C@@H](Cc1ccc(O)cc1)C(=O)N[C@@H](CC(C)C)C(=O)N[C@@H](C)C(=O)N[C@@H](C)C(=O)N[C@H](C(=O)N[C@@H](CC(C)C)C(N)=O)C(C)C)C(C)C)[C@@H](C)O [Peptide 29] (Ms-HS[Ala(1H-tetrazol-5-yl)]GIFT[Ala(1H-tetrazol-5-yl)]AYSRYRKQLAVKKYLAAVL-NH2)
  survival rate after correction for water, 60° C., 2-week storage (Table 7-2): 91.9%

## CC[C@H](C)[C@H](NC(=O)[C@H](C)NC(=O)[C@H](Cc1nnn[nH]1)NC(=O)[C@H](CO)NC(=O)[C@H](Cc1c[nH]cn1)NS(C)(=O)=O)C(=O)N[C@@H](Cc1ccccc1)C(=O)N[C@H](C(=O)N[C@@H](Cc1nnn[nH]1)C(=O)N[C@@H](CO)C(=O)N[C@@H](Cc1ccc(O)cc1)C(=O)N[C@@H](CO)C(=O)N[C@@H](CCCNC(=N)N)C(=O)N[C@@H](Cc1ccc(O)cc1)C(=O)N[C@@H](CCCNC(=N)N)C(=O)N[C@@H](CCCCN)C(=O)N[C@@H](CCC(N)=O)C(=O)N[C@@H](CC(C)C)C(=O)N[C@@H](C)C(=O)N[C@H](C(=O)N[C@@H](CCCCN)C(=O)N[C@@H](CCCCN)C(=O)N[C@@H](Cc1ccc(O)cc1)C(=O)N[C@@H](CC(C)C)C(=O)N[C@@H](C)C(=O)N[C@@H](C)C(=O)N[C@H](C(=O)N[C@@H](CC(C)C)C(N)=O)C(C)C)C(C)C)[C@@H](C)O [Peptide 30] (Ms-HS[Ala(1H-tetrazol-5-yl)]AIFT[Ala(1H-tetrazol-5-yl)]SYSRYRKQLAVKKYLAAVL-NH2)
  survival rate after correction for water, 60° C., 2-week storage (Table 7-2): 92.2%

## CC[C@H](C)[C@H](NC(=O)[C@H](C)NC(=O)[C@H](Cc1nnn[nH]1)NC(=O)[C@H](CO)NC(=O)[C@H](Cc1c[nH]cn1)NS(C)(=O)=O)C(=O)N[C@@H](Cc1ccccc1)C(=O)N[C@H](C(=O)N[C@@H](Cc1nnn[nH]1)C(=O)N[C@@H](CO)C(=O)N[C@@H](Cc1ccc(O)cc1)C(=O)N[C@@H](CO)C(=O)N[C@@H](CCCNC(=N)N)C(=O)N[C@@H](Cc1ccc(O)cc1)C(=O)N[C@@H](CCCNC(=N)N)C(=O)N[C@@H](CCCCN)C(=O)N[C@@H](CCC(N)=O)C(=O)N[C@@H](C)C(=O)N[C@@H](C)C(=O)N[C@H](C(=O)N[C@@H](CCCCN)C(=O)N[C@@H](CCCCN)C(=O)N[C@@H](Cc1ccc(O)cc1)C(=O)N[C@@H](CC(C)C)C(=O)N[C@@H](C)C(=O)N[C@@H](C)C(=O)N[C@H](C(=O)N[C@@H](CC(C)C)C(N)=O)C(C)C)C(C)C)[C@@H](C)O [Peptide 31] (Ms-HS[Ala(1H-tetrazol-5-yl)]AIFT[Ala(1H-tetrazol-5-yl)]SYSRYRKQAAVKKYLAAVL-NH2)
  survival rate after correction for water, 60° C., 2-week storage (Table 7-2): 90.1%

## CC[C@H](C)[C@H](NC(=O)[C@H](C)NC(=O)[C@H](Cc1nnn[nH]1)NC(=O)[C@H](CO)NC(=O)[C@H](Cc1c[nH]cn1)NC(C)=O)C(=O)N[C@@H](Cc1ccccc1)C(=O)N[C@H](C(=O)N[C@@H](Cc1nnn[nH]1)C(=O)N[C@@H](CO)C(=O)N[C@@H](Cc1ccc(O)cc1)C(=O)N[C@@H](CO)C(=O)N[C@@H](CCCNC(=N)N)C(=O)N[C@@H](Cc1ccc(O)cc1)C(=O)N[C@@H](CCCNC(=N)N)C(=O)N[C@@H](CCCCN)C(=O)N[C@@H](CCC(N)=O)C(=O)N[C@@H](C)C(=O)N[C@@H](C)C(=O)N[C@H](C(=O)N[C@@H](CCCCN)C(=O)N[C@@H](CCCCN)C(=O)N[C@@H](Cc1ccc(O)cc1)C(=O)N[C@@H](CC(C)C)C(=O)N[C@@H](C)C(=O)N[C@@H](C)C(=O)N[C@H](C(=O)N[C@@H](CC(C)C)C(N)=O)C(C)C)C(C)C)[C@@H](C)O [Peptide 32] (Ac-HS[Ala(1H-tetrazol-5-yl)]AIFT[Ala(1H-tetrazol-5-yl)]SYSRYRKQAAVKKYLAAVL-NH2)
  survival rate after correction for water, 60° C., 2-week storage (Table 7-2): 88.7%

## CC[C@H](C)[C@H](NC(=O)[C@H](C)NC(=O)[C@H](Cc1nnn[nH]1)NC(=O)[C@H](C)NC(=O)[C@H](Cc1c[nH]cn1)NC(C)=O)C(=O)N[C@@H](Cc1ccccc1)C(=O)N[C@H](C(=O)N[C@@H](Cc1nnn[nH]1)C(=O)N[C@@H](CO)C(=O)N[C@@H](Cc1ccc(O)cc1)C(=O)N[C@@H](CO)C(=O)N[C@@H](CCCNC(=N)N)C(=O)N[C@@H](Cc1ccc(O)cc1)C(=O)N[C@@H](CCCNC(=N)N)C(=O)N[C@@H](CCCCN)C(=O)N[C@@H](CCC(N)=O)C(=O)N[C@@H](C)C(=O)N[C@@H](C)C(=O)N[C@H](C(=O)N[C@@H](CCCCN)C(=O)N[C@@H](CCCCN)C(=O)N[C@@H](Cc1ccc(O)cc1)C(=O)N[C@@H](CC(C)C)C(=O)N[C@@H](C)C(=O)N[C@@H](C)C(=O)N[C@H](C(=O)N[C@@H](CC(C)C)C(N)=O)C(C)C)C(C)C)[C@@H](C)O [Peptide 33] (Ac-HA[Ala(1H-tetrazol-5-yl)]AIFT[Ala(1H-tetrazol-5-yl)]SYSRYRKQAAVKKYLAAVL-NH2)
  survival rate after correction for water, 60° C., 2-week storage (Table 7-2): 85.3%

## CC[C@H](C)[C@H](NC(=O)[C@H](C)NC(=O)[C@H](Cc1nnn[nH]1)NC(=O)[C@H](CO)NC(=O)[C@H](Cc1c[nH]cn1)NC(C)=O)C(=O)N[C@@H](Cc1ccccc1)C(=O)N[C@H](C(=O)N[C@@H](Cc1nnn[nH]1)C(=O)N[C@@H](CO)C(=O)N[C@@H](Cc1ccc(O)cc1)C(=O)N[C@@H](CO)C(=O)N[C@@H](CCCNC(=N)N)C(=O)N[C@@H](Cc1ccc(O)cc1)C(=O)N[C@@H](CCCNC(=N)N)C(=O)N[C@@H](CCCCN)C(=O)N[C@@H](C)C(=O)N[C@@H](C)C(=O)N[C@@H](C)C(=O)N[C@H](C(=O)N[C@@H](CCCCN)C(=O)N[C@@H](CCCCN)C(=O)N[C@@H](Cc1ccc(O)cc1)C(=O)N[C@@H](CC(C)C)C(=O)N[C@@H](C)C(=O)N[C@@H](C)C(=O)N[C@H](C(=O)N[C@@H](CC(C)C)C(N)=O)C(C)C)C(C)C)[C@@H](C)O [Peptide 34] (Ac-HS[Ala(1H-tetrazol-5-yl)]AIFT[Ala(1H-tetrazol-5-yl)]SYSRYRKAAAVKKYLAAVL-NH2)
  survival rate after correction for water, 60° C., 2-week storage (Table 7-2): 96.9%
